Measurements: PMC6158189, “A pharmacological probe identifies cystathionine β-synthase as a new negative regulator for ferroptosis” (Cell Death & Disease, 2018)

Assays:
HepG2 cells [1] = assay: rescue of CH004-induced loss of viability by cell death inhibitors (CellTiter 96); format: cell-based, human; settings: 100 µM DFO, 48 h or 72 h
Method: To measure cell viability and cytotoxicity, HepG2, HEK293T, Huh-7, H22, Panc-28, HCT116 and MDA-MB-231 cells were seeded at a density of ~ 2 × 10^4 cells per well in 96-well plates (Coring, NY, USA) for one day, followed by incubation with DMSO or various concentrations of tested compound for indicated times. Then, the cells were collected to measure the cell viability using the CellTiter 96® Aqueous One Solution Cell Proliferation Assay (Promega, G3581) according to the standard protocols.
(§1) Figure S15. The mode of actions for CH004 in cells. […] Indicated HEK293T stable cell lines were treated with CH004 at a concentration of 10 µM for 24 h, and the cell viability was then measured using the CellTiter96® Aqueous One Solution Cell Proliferation Assay (Promega). Means ± SDs (n=3). (B-C) CH004 or erastin triggers ferroptosis in mouse embryonic fibroblasts (MEF). WT MEF cells were treated with CH004 or erastin at indicated concentrations in the presence or the absence of 500 µM DFO for 24 h before measuring the lipid ROS with 2 μM BODIPY® 581/591 C11 (Materials and methods). […] The cell viability was accordingly quantified using the CellTiter96® Aqueous One Solution Cell Proliferation Assay (Promega) and the results were shown as percentages of DMSO (control, 100%). […]

HepG2 cells [2] = assay: lipid ROS (BODIPY 581/591 C11, flow cytometry); format: cell-based, human; settings: 24 h; for accumulation of lipid ROS in HepG2 cells: up to 15 μM
Method: (§2) To detect lipid peroxidation upon treatment with CH004, HepG2 cells or mouse embryonic fibroblasts (MEF) were seeded in 12-well plates with ~ 1.8 × 10^5 cells per well for 24 h. After treatment with the inhibitor for another 24 h, cells were stained with BODIPY® 581/591 C11 (Invitrogen) for 1 h at a final concentration of 2 μM at 37 °C[57]. The cells were then resuspended in an appropriate amount of PBS after being washed once with PBS. Lipid peroxidation, i.e., lipid ROS, was analyzed by detection of the fluorescence using an LSR Fortessa flow cytometer. The data were recorded at 530/30 nm (green fluorescent) and 670/30 nm (red fluorescent) wavelengths after excitation at 488 nm. A minimum of 20000 events was used for the analysis. All the experiments were independently repeated twice in triplicate.
Figure S15. The mode of actions for CH004 in cells. […] Indicated HEK293T stable cell lines were treated with CH004 at a concentration of 10 µM for 24 h, and the cell viability was then measured using the CellTiter96® Aqueous One Solution Cell Proliferation Assay (Promega). Means ± SDs (n=3). (B-C) CH004 or erastin triggers ferroptosis in mouse embryonic fibroblasts (MEF). WT MEF cells were treated with CH004 or erastin at indicated concentrations in the presence or the absence of 500 µM DFO for 24 h before measuring the lipid ROS with 2 μM BODIPY® 581/591 C11 (Materials and methods). […] Erastin at micromolar concentrations were incubated with HepG2 cells for 24 h before measuring the lipid ROS (see above and Materials and methods). […] Means ± SDs (n=3). […] CH004 or erastin at a concentration of 20 µM was incubated with HepG2 cells for 48 h or 72 h in the presence or the absence of 100 µM DFO. The cell viability was accordingly quantified using the CellTiter96® Aqueous One Solution Cell Proliferation Assay (Promega) and the results were shown as percentages of DMSO (control, 100%). Means ± SDs (n=3). All the experiments were independently repeated at least twice and one representative result is present. Table S1 The inhibitory effects of CH004 on purified hCBS, hCSE and hDDC.

HepG2 cells [3] = assay: cell viability (CellTiter 96 Aqueous One); format: cell-based, human; settings: 20 μM, 48 h or 72 h
Method: Fig. 4 CH004 arrests the cell cycle at the S phase. a CH004 reduces the cell viability of HEK293T and HepG2 cells. HEK293T or HepG2 cells were treated with indicated concentrations of CH004 for 24 h before the cell number was analyzed using the CellTiter96® Aqueous One Solution Cell Proliferation Assay (Promega, Materials and Methods). The means at each concentration of one representative experiment are shown as percentages of DMSO (control, 100%). Means ± SDs (n = 3). b Overexpression of hCBS or knock-down of hCBS counteracts the growth inhibition exerted by CH004 in HEK293T cells. Indicated HEK293T stable cell lines were treated with the CH004 or DMSO for 24 h. Then, the cell viability was quantified with the CellTiter 96® Aqueous One Solution Cell Proliferation Assay under the standard protocol (Promega). The means at each concentration are shown as percentages of their respective DMSO controls (100%). Means ± SDs (n = 3). The efficacy for CBS overexpression and knock-down in HEK293T cells was determined by Western blotting using an anti-CBS antibody (3E1, 1:2000; Abnova). c CH004 induces cell death in HEK293T and HepG2 cells. […] The means of percentages of dead cells (DMSO, 100%) from three independent samples are shown in d. Means ± SDs (n = 3). e, f Pharmacological inhibition or genetic knock-down of hCBS in HEK293T cells arrests the cell cycle at S phase. HEK293T cells were incubated with indicated compounds for 12 h, and the DNA content was quantified with propidium iodide to analyze the cell cycle distribution by flow cytometry (e). The cell cycle distributions for HEK293T-shNT and HEK293T-shCBS cells were accordingly analyzed and are shown in f. One representative diagram is shown for each condition. The mean percentages of various cell phases from three independent samples are shown in the respective right panels. Means ± SDs (n = 3). […]
Figure S15. […] Indicated HEK293T stable cell lines were treated with CH004 at a concentration of 10 µM for 24 h, and the cell viability was then measured using the CellTiter96® Aqueous One Solution Cell Proliferation Assay (Promega). […]

[4] = system: mouse embryonic fibroblasts (MEF); assay: lipid ROS (BODIPY 581/591 C11, flow cytometry); format: cell-based; settings: low micromolar concentrations, 24 h
Method: as §2
as §1, with “(MEF).” for “(MEF). WT MEF cells were treated with CH004 or erastin at indicated concentrations in the presence or the absence of 500 µM DFO for 24 h before measuring the lipid ROS with 2 μM BODIPY® 581/591 C11 (Materials and methods).”

SMILES	rescue of cell death caused by 20 µM CH004 (HepG2 cells [1])	reduction of lipid ROS caused by 10 μM CH004 (HepG2 cells [2]; 500 μM deferoxamine, HepG2)	cell death in HepG2 cells (HepG2 cells [3])	accumulation of lipid ROS in HepG2 cells (HepG2 cells [2])	accumulation of lipid ROS in HepG2 cells (HepG2 cells [2]; listed as Erastin)	induction of ferroptosis (lipid ROS) in MEF [4]
CC(=O)N(O)CCCCCNC(=O)CCC(=O)N(O)CCCCCNC(=O)CCC(=O)N(O)CCCCCN [deferoxamine]	partially rescues	almost completely reduced				
CCOc1ccccc1-n1c(C(C)N2CCN(C(=O)COc3ccc(Cl)cc3)CC2)nc2ccccc2c1=O (stereo not drawn) [erastin, reference compound]			did not trigger	did not trigger	does not induce ferroptosis	~ 3 fold
